Consider 15 compounds from patent publication US11040028B2, “Penicinotam derivative, preparation method and use thereof” (OCEAN UNIVERSITY OF CHINA, priority 2017, dated 2021).

Holding throughout (type): cell-based
Experiment [1] has as its system human fibrosarcoma cells HT-1080. In words: Anti-fibrosis activity test: inhibition of proliferation of human fibrosarcoma cells HT-1080 (CCK-8). Conditions: Homo sapiens, HT-1080, 48 h, human fibrosarcoma cells HT-1080, CCK-8, 48 hours. In short, it runs like this:
(§1)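 IC50 values derive from CCK-8 absorbance (450 nm, 2 h reagent incubation) measured after a 48 h exposure to test compounds. Before dosing, cells plated at 2×10^4 cells/mL had attached for 24 h under 5% CO2 at 37° C; triplicate wells per concentration.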

Experiment [2] concerns human hepatic stellate cells LX-2. In words: Anti-fibrosis activity test: inhibition of proliferation of human hepatic stellate cells LX-2 (CCK-8). Conditions: Homo sapiens, 48 h, human hepatic stellate cells LX-2, CCK-8, 48 hours. In short, it runs like this:
as §1

In experiment [3] the test system is human dermal fibroblasts CCC-ESF-1. In words: Anti-fibrosis activity test: inhibition of proliferation of human dermal fibroblasts CCC-ESF-1 (CCK-8). Conditions: Fibroblast; human dermal fibroblasts CCC-ESF-1, CCK-8, 48 hours. In short, it runs like this: as §1
For experiment [4], the system named is human embryonic lung fibroblast IMR-90. In words: Anti-fibrosis activity test: inhibition of proliferation of human embryonic lung fibroblast IMR-90 (CCK-8). Conditions: human embryonic lung fibroblast IMR-90, CCK-8, 48 hours. In a few lines: as §1
For the next experiment, the system named is BHK-21 cells. Put plainly: Anti-fibrosis activity test: inhibition of BHK-21 cell proliferation (CCK-8). The conditions noted are these: Mesocricetus auratus, BHK-21, 48 h, CCK-8, 48 hours after administration. In a few lines: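 Read-out: CCK-8 absorbance at 450 nm after 2 h, giving proliferation inhibition (1−Ai/Ao)×100% versus blank control, from which IC50 was derived. Cells had been treated with compounds for 48 h after 24 h adherence at 37° C. Pirfenidone served as positive control.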

The test system of experiment [5] is cardiac fibroblast RAT-iCell-C002. Put plainly: Anti-fibrosis activity test: inhibition of proliferation of cardiac fibroblast RAT-iCell-C002 (CCK-8). Conditions: Cardiac fibroblast, 48 h, cardiac fibroblast RAT-iCell-C002, CCK-8, 48 hours. In a few lines: as §1
The next experiment concerns NF-κB. Put plainly: Immunological activity test: inhibition of NF-κB activity. The conditions noted are these: initial concentration of 30 μM; a/b isomers given as first/second symbol; read-out: IC50 (μM), inhibitory activity against NF-κB. In short, it runs like this:
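Initial screen at 30 μM; parthenolide positive control. IC50s derived from follow-up analysis.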

Experiment [6] relates to mouse macrophages (RAW264.7). In words: Lipopolysaccharide-induced NO secretion in macrophages (Griess). Conditions: Mus musculus, RAW264.7, 24 h, RAW264.7, LPS 1 μg/ml, a/b isomers given as first/second symbol, read-out: IC50 (μM), inhibition of lipopolysaccharide-induced NO secretion in macrophages. In short, it runs like this:
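Percent inhibition of NO release was measured by Griess absorbance at 548 nm in supernatants. Cells were mouse RAW264.7 macrophages in 10% FBS DMEM, treated with graded compound concentrations and activated by LPS (1 μg/ml) for 24 h.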

Experiment [7] concerns human lung fibroblasts HFL1. In words: Anti-fibrosis activity test: inhibition of proliferation of human lung fibroblasts HFL1 (CCK-8). Conditions: Homo sapiens, HFL1, 48 h, human lung fibroblasts HFL1, CCK-8, 48 hours. In short, it runs like this: as §1

Consider `N#Cc1cccc(Cn2c3c(c(=O)c4ccccc42)C(=O)n2cccc2-3)c1` [Compound 597a, 3-((9,10-Dioxo-9H-pyrrolizino[1,2-b]quinolin-4(10H)-yl)methyl)benzonitrile], for which the IC50 (in experiment [1]; in experiment [2]; in [3]; in [4]; in the experiment with BHK-21 cells; in [5]) was 0.05 to 5 mM in each case. Moreover, the IC50 in the experiment on NF-κB lay in the range of 1 to 10 µM; in experiment [6], 1 to 10 µM; in experiment [7] it was 0.05 to 5 mM.

In the case of `N#Cc1cccc(COc2c3c(nc4ccccc24)-c2cccn2C3=O)c1` [Compound 597b, 3-(((10-oxo-10H-pyrrolizino[1,2-b]quinolin-9-yl)oxy)methyl)benzonitrile], the IC50 (in [1]; in experiment [2]; in experiment [3]; in experiment [4]; in the experiment on BHK-21 cells; in experiment [5]) was 0.05 to 5 mM each time. The IC50 was 1 to 10 µM in the experiment with NF-κB, 1 to 10 µM in experiment [6] and 0.05 to 5 mM in experiment [7].

With `O=C1c2c(n(Cc3cccc(C(F)(F)F)c3)c3ccccc3c2=O)-c2cccn21` [Compound 598a, 4-(3-(Trifluoromethyl)benzyl)-9H-pyrrolizino[1,2-b]quinoline-9,10(4H)-dione], the IC50 (in experiment [1]; in [2]; in experiment [3]; in experiment [4]; in the experiment on BHK-21 cells; in experiment [5]) was 0.05 to 5 mM throughout. Also, the IC50 in the experiment on NF-κB is 1 to 10 µM; in experiment [6], 1 to 10 µM; in experiment [7] it was 0.05 to 5 mM.

As to `O=C1c2c(nc3ccccc3c2OCc2cccc(C(F)(F)F)c2)-c2cccn21` [Compound 598b, 9-((3-(trifluoromethyl)benzyl)oxy)-10H-pyrrolizino[1,2-b]quinolin-10-one], the half-inhibitory concentration (IC50) (in experiment [1]; in experiment [2]; in [3]; in experiment [4]; with BHK-21 cells; in [5]) was 0.05 to 5 mM in each case. In addition, the IC50 lay in the range of 1 to 10 µM in the experiment on NF-κB, 1 to 10 µM in experiment [6] and 0.05 to 5 mM in [7].

Take `O=C1c2c(n(Cc3ccccc3F)c3ccccc3c2=O)-c2cccn21` [Compound 599a, 4-(2-Fluorobenzyl)-9H-pyrrolizino[1,2-b]quinoline-9,10(4H)-dione]: the half-inhibitory concentration (IC50) (in [1]; in experiment [2]; in experiment [3]; in experiment [4]; with BHK-21 cells; in [5]) was 0.05 to 5 mM each time. Besides, the half-inhibitory concentration (IC50) in the experiment with NF-κB lay within 0.1 to 1 µM; in experiment [6] it was 1 to 10 µM; in [7], 0.05 to 5 mM.

For `O=C1c2c(nc3ccccc3c2OCc2ccccc2F)-c2cccn21` [Compound 599b, 9-((2-fluorobenzyl)oxy)-10H-pyrrolizino[1,2-b]quinolin-10-one], the IC50 (in experiment [1]; in experiment [2]; in [3]; in experiment [4]; in the experiment on BHK-21 cells; in [5]) was 0.05 to 5 mM throughout. The results for the IC50 (in the experiment with NF-κB; in experiment [6]; in experiment [7]) were 1 to 10 µM, 1 to 10 µM and 0.05 to 5 mM, respectively.

`O=C1c2c(n(Cc3ccccc3Cl)c3ccccc3c2=O)-c2cccn21` [Compound 600a, 4-(2-Chlorobenzyl)-9H-pyrrolizino[1,2-b]quinoline-9,10(4H)-dione]: the IC50 (in experiment [1]; in experiment [2]; in [3]; in experiment [4]; in the experiment with BHK-21 cells; in experiment [5]) was 0.05 to 5 mM each time. For the same compound, the results for the half-inhibitory concentration (IC50) (with NF-κB; in experiment [6]; in experiment [7]) were 0.1 to 1 µM, 0.1 to 1 µM and 0.05 to 5 mM, respectively.

For `O=C1c2c(nc3ccccc3c2OCc2ccccc2Cl)-c2cccn21` [Compound 600b, 9-((2-chlorobenzyl)oxy)-10H-pyrrolizino[1,2-b]quinolin-10-one], the IC50 (in experiment [1]; in [2]; in experiment [3]; in experiment [4]; in the experiment with BHK-21 cells; in experiment [5]) was 0.05 to 5 mM in each case. Further, the IC50 fell in the range of 1 to 10 µM in the experiment on NF-κB, 1 to 10 µM in experiment [6] and 0.05 to 5 mM in [7].

`O=C1c2c(n(Cc3ccc(F)c(F)c3)c3ccccc3c2=O)-c2cccn21` [Compound 601a, 4-(3,4-Difluorobenzyl)-9H-pyrrolizino[1,2-b]quinoline-9,10(4H)-dione]: the 50% inhibitory concentration (IC50) (in [1]; in experiment [2]; in experiment [3]; in experiment [4]; in the experiment on BHK-21 cells; in [5]) was 0.05 to 5 mM each time. In addition, the IC50 is 1 to 10 µM with NF-κB, 1 to 10 µM in experiment [6] and 0.05 to 5 mM in [7].

For the compound `O=C1c2c(nc3ccccc3c2OCc2ccc(F)c(F)c2)-c2cccn21` [Compound 601b, 9-((3,4-difluorobenzyl)oxy)-10H-pyrrolizino[1,2-b]quinolin-10-one], the IC50 (in experiment [1]; in experiment [2]; in [3]; in experiment [4]; with BHK-21 cells; in [5]) was 0.05 to 5 mM each time. The IC50 lay within 1 to 10 µM in the experiment with NF-κB, 1 to 10 µM in [6] and 0.05 to 5 mM in [7].

In the case of `O=C1c2c(n(Cc3ccc(Cl)cc3F)c3ccccc3c2=O)-c2cccn21` [Compound 602a, 4-(4-Chloro-2-fluorobenzyl)-9H-pyrrolizino[1,2-b]quinoline-9,10(4H)-dione], the half-inhibitory concentration (IC50) (in experiment [1]; in experiment [2]; in [3]; in experiment [4]; in the experiment with BHK-21 cells; in experiment [5]) was 0.05 to 5 mM each time. In addition, the IC50 lay in the range of 1 to 10 µM with NF-κB, 1 to 10 µM in [6] and 0.05 to 5 mM in experiment [7].

In the case of `O=C1c2c(nc3ccccc3c2OCc2ccc(Cl)cc2F)-c2cccn21` [Compound 602b, 9-((4-chloro-2-fluorobenzyl)oxy)-10H-pyrrolizino[1,2-b]quinolin-10-one], the IC50 (in [1]; in experiment [2]; in experiment [3]; in [4]; in the experiment with BHK-21 cells; in experiment [5]) was 0.05 to 5 mM in each case. The IC50 lay in the range of 1 to 10 µM with NF-κB, 1 to 10 µM in experiment [6] and 0.05 to 5 mM in [7].

In the case of `O=C1c2c(n(Cc3ccc(F)c(Cl)c3)c3ccccc3c2=O)-c2cccn21` [Compound 603a, 4-(3-Chloro-4-fluorobenzyl)-9H-pyrrolizino[1,2-b]quinoline-9,10(4H)-dione], the IC50 in [1] is 0.05 to 5 mM; in experiment [2], 0.05 to 5 mM; in experiment [3] it was 0.05 to 5 mM; in experiment [4] it was 0.05 to 5 mM; in the experiment on BHK-21 cells, under 0.05 mM; in [5], 0.05 to 5 mM. The values for the IC50 (in the experiment with NF-κB; in experiment [6]; in [7]) were 1 to 10 µM, 1 to 10 µM and 0.05 to 5 mM, respectively.

On to `O=C1c2c(nc3ccccc3c2OCc2ccc(F)c(Cl)c2)-c2cccn21` [Compound 603b, 9-((3-chloro-4-fluorobenzyl)oxy)-10H-pyrrolizino[1,2-b]quinolin-10-one], for which the IC50 (in experiment [1]; in experiment [2]; in [3]; in experiment [4]; in the experiment with BHK-21 cells; in experiment [5]) was 0.05 to 5 mM each time. In addition, the IC50 in the experiment on NF-κB lay within 1 to 10 µM; in experiment [6] it was 1 to 10 µM; in experiment [7] it was 0.05 to 5 mM.

As for `Cc1ccc(Cn2c3c(c(=O)c4ccccc42)C(=O)n2cccc2-3)cc1` [Compound 604a, 4-(4-Methylbenzyl)-9H-pyrrolizino[1,2-b]quinoline-9,10(4H)-dione], the IC50 in experiment [1] is under 0.05 mM; in experiment [2], 0.05 to 5 mM; in experiment [3], 0.05 to 5 mM; in experiment [4], 0.05 to 5 mM; with BHK-21 cells, 0.05 to 5 mM; in experiment [5], 0.05 to 5 mM. Besides, the half-inhibitory concentration (IC50) fell in the range of 1 to 10 µM with NF-κB, 1 to 10 µM in experiment [6] and 0.05 to 5 mM in [7].
